# Reference: patent publication US10551384B2, “MTOR kinase mutations and methods of use thereof” (RUTGERS, THE STATE UNIVERSITY OF NEW JERSEY, priority 2016, dated 2020)
# “Also recorded” adds a separate entry of the source.
# Tests used:
# [1] = tested on: TOR2-mTOR L2185G mutant; assay: Yeast spotting assay for drug resistance, TOR2-mTOR L2185G; format: cell-based, S. cerevisiae; settings: 37° C., with amphotericin B
# Description: (§1) FIGS. 4A-C. […] (FIG. 4A) Scheme of a yeast-based screen for drug-resistant mutations in mTOR kinase domain. mTOR kinase domain is amplified by error-prone PCR to generate randomized mutations, which is then recombined in frame into the TOR2-mTOR plasmid by gap-repair in tort-dg cells, and is selected on SC-leucine minus plates. Replica plating is then made onto SC-leucine plates containing DMSO or mTOR kinase inhibitor for selection of drug resistant clones. (FIG. 4B) tor2-dg cells expressing WT or mutant TOR2-mTOR were serially diluted by 10-fold and assayed for sensitivity to different mTOR kinase inhibitors in the presence of amphotericin B. Vector and TOR2 were used as controls. Drug resistant assay was performed at 37° C. in the presence of amphotericin B (except OSI-027). (FIG. 4C) Systematic mutational analysis of L2185 on drug resistance. tort-dg cells expressing WT or mutant TOR2-mTOR carrying all possible mutations at L2185 were serially diluted by 10-fold and tested for sensitivity to different mTOR kinase inhibitors at 37° C.
# (§2) To enhance yeast cell permeability, log phase W303 tort-dg cells were spread evenly on SD-Leu agarose plates. After drying, small sterile filter discs were placed on the surface and 5 μl of indicated mTOR inhibitors or DMSO were applied to each disc with or without adding 5 μl of amphotericin B (10 μM), miconazole (50 μM) or caspofungin (50 μM). Plates were incubated at 37° C. for 3 day. Drug resistance profiles of TOR2-mTOR mutant cells were determined by the spotting assay. For this assay, 10-fold serial dilutions of cells were spotted on SD-leu plates in the presence of indicated mTOR inhibitors with or without amphotericin B (200 nM) and incubated at 37° C. for 3 day.
# [2] = tested on: xenograft tumors derived from SW480 cells expressing WT mTOR; assay: SW480 xenograft tumor model, WT mTOR; format: in vivo, mice
# Description: (§3) FIGS. 6A-E. L2185A mutation renders resistance of xenograft tumors to mTOR kinase inhibitors. (FIG. 6A) Mice bearing xenograft tumors derived from SW480 cells expressing WT mTOR were administered with INK128 at 1 mg/kg or 0.3 mg/kg, once daily via intraperitoneal injection. Shown are representative animals and excised tumors after drug treatment. (FIG. 6B) Same as FIG. 6A except xenograft tumors were derived from SW480 carrying homozygous mTOR(L2185A) alleles. (FIG. 6C) Tumor volume measurement for SW480 xenograft tumors expressing mTOR (WT) (expressed as means±SD; n=8, *P<0.01, vs. vehicle control). (FIG. 6D) Tumor volume measurement for SW480 xenograft tumors expressing mTOR(L2185A) mutant (expressed as means±SD; n=8). (FIG. 6E) Tissue extracts from xenograft tumors at the end of treatment with or without 1 mg/kg INK128 were analyzed for the level of P-S6K, S6K, P-S6, S6, P-4E-BP1, 4E-BP1, P-AKT and AKT was analyzed by immunoblot. Six tumor samples from each animal group were shown with each lane representing an individual tumor sample.
# (§4) Female athymic NCr-nu/nu mice (4-6 weeks old) were obtained from Taconic Farms. […] Tumor volume was calculated by the following formula: tumor volume (mm^3)=(shorter diameter^2× longer diameter)/2 and are presented as means±SD (n=8) (Zhang, Y., and Zheng, X. (2012). Cell Cycle 11, 594-603). […]
# [3] = tested on: TOR2-mTOR L2185A mutant; assay: Yeast spotting assay for drug resistance, TOR2-mTOR L2185A; format: cell-based, S. cerevisiae; settings: 37° C., amphotericin B present (except OSI-027)
# Description: as §1, §2
# [4] = tested on: xenograft tumors derived from SW480 cells carrying homozygous mTOR(L2185A) alleles; assay: SW480 xenograft tumor model, mTOR(L2185A); format: in vivo, mice
# Description: as §3, §4
# [5] = 1 mg/kg or 0.3 mg/kg once daily, intraperitoneal injection
# [6] = 1 mg/kg, tumor extracts at end of treatment, immunoblot
smiles,measurement,setting,value
CC(C)n1nc(-c2ccc3oc(N)nc3c2)c2c(N)ncnc21 [INK128],drug resistance of TOR2-mTOR L2185G mutant yeast,[1],moderately resistant
same,growth of WT mTOR xenograft tumors,[2]; [5],strongly attenuates growth
same,mTOR signaling in WT mTOR xenograft tumors,[2]; [6],complete blockadge of mTOR signaling
same,drug resistance/sensitivity of TOR2-mTOR L2185A mutant yeast,[3],confer resistance; also recorded: conferring resistance
same,growth of mTOR(L2185A) xenograft tumors,[4]; [5],little or no effect
same,mTORC1 and mTORC2 signaling in mTOR(L2185A) xenograft tumors,[4]; [6],drug-resistance in mTORC1 and mTORC2 signaling
